Where a name gives a salt, the structure may show the parent alone. Non-standard residues stand in square brackets, D forms with d. Residues, ends and D or L forms follow the SMILES beside them. pGlu = O=C1CC[CH](C(=O)O)N1
How the values were obtained:
hSGLT2 = molecular target: T1, hSGLT2 (Homo sapiens, UniProt P31639); experiment: SGLT2 inhibition assay for validation of screening hits and similar compounds (1‐NBD‐glucose uptake, CHO‐hSGLT2 cells); format: cell-based; set-up: activity: dose or concentration left out as unconfirmed; settings: for remaining activity at 5 µM / remaining activity at 50 µM: 0.5 h, concentration not given, read-out: NORMALIZED SGLT2 ACTIVITY (%); for remaining activity at 5 µM / remaining activity at 50 µM / activity: mean; for activity: compound, normalized 1-NBD-glucose uptake, CHO-hSGLT2 cells; for SGLT2/SGLT1 ACTIVITY RATIO 5 uM Mean: ratio of normalized SGLT2 to SGLT1 activity at 5 uM; for SGLT2/SGLT1 ACTIVITY RATIO, first concentration / SGLT2/SGLT1 ACTIVITY RATIO, second concentration: ratio of normalized SGLT2 to SGLT1 activity
T1 sequence (P31639 1-672): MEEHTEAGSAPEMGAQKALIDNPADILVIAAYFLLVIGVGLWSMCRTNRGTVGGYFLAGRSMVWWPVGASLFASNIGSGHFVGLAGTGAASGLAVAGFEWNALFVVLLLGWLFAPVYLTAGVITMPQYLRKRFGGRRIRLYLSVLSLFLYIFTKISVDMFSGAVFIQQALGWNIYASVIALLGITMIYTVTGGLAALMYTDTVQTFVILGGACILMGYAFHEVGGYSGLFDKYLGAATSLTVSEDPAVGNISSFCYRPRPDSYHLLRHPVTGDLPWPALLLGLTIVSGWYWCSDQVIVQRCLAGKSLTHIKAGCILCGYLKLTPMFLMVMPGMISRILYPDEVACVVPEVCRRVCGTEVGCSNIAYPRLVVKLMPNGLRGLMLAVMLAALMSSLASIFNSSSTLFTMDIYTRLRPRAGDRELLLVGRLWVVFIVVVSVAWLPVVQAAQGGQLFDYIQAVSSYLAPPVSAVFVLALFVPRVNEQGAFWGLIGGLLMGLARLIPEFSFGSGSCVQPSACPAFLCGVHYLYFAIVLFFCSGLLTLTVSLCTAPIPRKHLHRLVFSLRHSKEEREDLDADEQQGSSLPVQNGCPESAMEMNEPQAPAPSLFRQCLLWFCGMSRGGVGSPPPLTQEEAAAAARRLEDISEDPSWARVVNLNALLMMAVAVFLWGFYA

SGLT1 = molecular target: T2, SGLT1 (Homo sapiens, UniProt P13866); experiment: SGLT1 inhibition assay for validation of screening hits and similar compounds (1‐NBD‐glucose uptake, CHO‐hSGLT1 cells); format: cell-based; set-up: activity: dose or concentration left out as unconfirmed; settings: for remaining activity at 5 µM / remaining activity at 50 µM: 0.5 h, concentration not given, read-out: NORMALIZED SGLT1 ACTIVITY (%); for remaining activity at 5 µM / remaining activity at 50 µM / activity: mean; for activity: compound, normalized 1-NBD-glucose uptake, CHO-hSGLT1 cells; for SGLT1/2 inhibition stated in words: SGLT1 and/or SGLT2, discussion statements; for SGLT1 inhibition / inhibition at 50 µM: mean inhibition with 50 μmol/L inhibitor; for inhibition at 50 µM: read-out: SGLT1 inhibition
T2 sequence (P13866 1-664): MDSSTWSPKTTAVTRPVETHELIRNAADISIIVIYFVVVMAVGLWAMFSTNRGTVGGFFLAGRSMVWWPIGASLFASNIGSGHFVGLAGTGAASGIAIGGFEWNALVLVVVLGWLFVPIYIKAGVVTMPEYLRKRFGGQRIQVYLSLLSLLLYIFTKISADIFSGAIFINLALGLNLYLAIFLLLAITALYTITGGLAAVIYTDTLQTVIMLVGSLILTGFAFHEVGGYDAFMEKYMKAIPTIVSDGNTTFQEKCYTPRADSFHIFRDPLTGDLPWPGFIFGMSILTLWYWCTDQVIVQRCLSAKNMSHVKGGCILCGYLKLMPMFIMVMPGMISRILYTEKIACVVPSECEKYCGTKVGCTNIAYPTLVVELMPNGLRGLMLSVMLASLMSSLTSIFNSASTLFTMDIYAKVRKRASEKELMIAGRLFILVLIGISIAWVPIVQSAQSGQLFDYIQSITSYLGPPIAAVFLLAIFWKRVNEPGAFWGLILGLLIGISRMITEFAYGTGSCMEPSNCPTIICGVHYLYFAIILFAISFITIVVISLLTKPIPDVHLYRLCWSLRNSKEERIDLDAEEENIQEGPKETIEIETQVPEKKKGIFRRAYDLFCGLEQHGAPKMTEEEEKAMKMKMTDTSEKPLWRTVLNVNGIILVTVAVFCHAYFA

| SMILES | remaining activity at 5 µM (hSGLT2) [%] | remaining activity at 50 µM (hSGLT2) [%] | remaining activity at 5 µM (SGLT1) [%] | remaining activity at 50 µM (SGLT1) [%] | other results |
| --- | --- | --- | --- | --- | --- |
| CCCCN1CCCCC1C(=O)Nc1c(C)cc(C)cc1C (stereo not drawn) | 73 | 50 | 80 | 44 |  |
| CCN(CC)CCC(O)(c1ccccc1)C1CCCCC1 (stereo not drawn) |  |  |  |  | activity (hSGLT2): 69%; SGLT2/SGLT1 ACTIVITY RATIO 5 uM Mean (hSGLT2): 0.952; activity (SGLT1): 72% |
| Cc1cc(C)c(NC(=O)C2CCCCN2C2CCCCC2)c(C)c1 (stereo not drawn) | 81 | 52 | 92 | 58 |  |
| CN1CCC(C#N)(c2ccccc2)CC1 | 105 | 102 | 109 | 105 |  |
| CC(=O)OC(C)(C)C1Cc2cc3ccc(=O)oc3cc2O1 (stereo not drawn) |  |  |  |  | activity (hSGLT2): 101%; SGLT2/SGLT1 ACTIVITY RATIO 5 uM Mean (hSGLT2): 1.0; activity (SGLT1): 106% |
| c1coc(-c2nnc([C@H]3CCN(C4CCCCC4)C3)o2)c1 | 98 | 89 | 122 | 98 |  |
| CN1CC[C@H](c2nc3ccccc3s2)C1 | 104 | 112 | 116 | 116 |  |
| CN1CCC(N2CC[C@H](c3nc4ccccc4o3)C2)CC1 | 102 | 106 | 117 | 114 |  |
| Fc1ccccc1CN1CC[C@H](c2nnc(-c3ccco3)o2)C1 | 100 | 94 | 117 | 117 |  |
| Cn1c(CO[C@H]2CN(Cc3ccncc3F)C[C@H]2F)nc2ccccc21 | 99 | 99 | 115 | 115 |  |
| CN1CCC(N2CC[C@H](c3nc4cc(Cl)ccc4o3)C2)CC1 | 101 | 85 | 116 | 115 |  |
| Fc1ccc(-c2noc([C@@H]3CCCN3Cc3ccccc3F)n2)nc1 | 110 | 91 | 125 | 105 |  |
| CC(=O)OC1C(OC(=O)C2(C)OC2C)c2c(ccc3ccc(=O)oc23)OC1(C)C (stereo not drawn) |  |  |  |  | activity (hSGLT2): 90%; SGLT2/SGLT1 ACTIVITY RATIO 5 uM Mean (hSGLT2): 0.9; activity (SGLT1): 102% |
| Oc1c(Cl)cc(Cl)c2cccnc12 | 114 | 91 | 115 | 57 |  |
| Oc1c(I)cc(I)c2cccnc12 | 107 | 107 | 109 | 106 |  |
| C=CC(C)(O)CC/C=C(\C)C(=O)OC1C(O)C(CO)OC(OC(=O)C23CCC(C)(C)CC2C2=CCC4C5(C)CCC(OC6OC(COC7OCC(OC(C)=O)C(O)C7OC7OC(COC(C)=O)C(O)C(O)C7O)C(O)C(O)C6O)C(C)(C)C5CCC4(C)C2(C)C(O)C3O)C1OC1OCC(OC2OCC(O)C(OC3OCC(O)C(O)C3O)C2O)C(O)C1O (stereo not drawn) | 111 | 71 | 112 | 54 |  |
| c1ccc(CO[C@H]2COCCN(Cc3ccccn3)C2)cc1 |  |  |  |  | activity (hSGLT2): 110%; SGLT2/SGLT1 ACTIVITY RATIO 5 uM Mean (hSGLT2): 0.9; activity (SGLT1): 120% |
| Cc1nc(-c2cccs2)cc([C@H]2CN3CC[C@H]2C[C@@H]3CO)n1 | 110 | 103 | 120 | 115 |  |
| O[C@@H]1CCCC[C@H]1N1CCC(c2ccccc2)CC1 (racemic) [vesamicol, reference compound] | 91 | 71 | 93 | 51 | SGLT1/2 inhibition stated in words (SGLT1): showed SGLT1/2 inhibition |

| SMILES | remaining activity at 5 µM (hSGLT2) [%] | remaining activity at 50 µM (hSGLT2) [%] | remaining activity at 5 µM (SGLT1) [%] | remaining activity at 50 µM (SGLT1) [%] | other results |
| --- | --- | --- | --- | --- | --- |
| CC1(C)Oc2ccc3ccc(=O)oc3c2[C@H](O)[C@@H]1O (relative stereo) [cis‐khellactone] |  |  |  |  | SGLT2 inhibition (hSGLT2; mean inhibition with 50 μmol/L inhibitor): no SGLT inhibition; SGLT1 inhibition (SGLT1): no SGLT inhibition |
| c1ccc(CN2CCCCC2)cc1 [1-Benzylpiperidine] | 94 | 93 | 109 | 102 |  |
| OC1(c2ccccc2)CCNC2CCCCC21 (stereo not drawn) [4-Phenyldecahydro-4-quinolinol] | 94 | 81 | 98 | 97 |  |
| c1ccc(C23CCN(CC2)CC3)cc1 [4-Phenylquinuclidine] | 81 | 60 | 96 | 72 |  |
| CC1(C)Oc2ccc3ccc(=O)oc3c2C[C@H]1O [(+)-Lomatin] |  |  |  |  | activity (hSGLT2): 115%; SGLT2/SGLT1 ACTIVITY RATIO 5 uM Mean (hSGLT2): 0.9; activity (SGLT1): 124% |
| C1CCN2C[C@H]3C[C@H](CN4CCCC[C@@H]34)[C@H]2C1 [(+)-Sparteine] |  |  |  |  | SGLT2/SGLT1 ACTIVITY RATIO, first concentration (hSGLT2): 1.0; SGLT2/SGLT1 ACTIVITY RATIO, second concentration (hSGLT2): 1.0 |
| C/C=C(\C)C(=O)O[C@H]1[C@@H](OC(C)=O)c2c(ccc3ccc(=O)oc23)OC1(C)C [(+)‐praeruptorin A] |  |  |  |  | SGLT2/SGLT1‐50μmol/L (ratio of SGLT2 to SGLT1 activities with 50 μmol/L inhibitor) (SGLT1): 2 |
| C1CCN2C[C@@H]3C[C@@H](CN4CCCC[C@@H]34)[C@H]2C1 [(-)-Sparteine] |  |  |  |  | SGLT2/SGLT1 ACTIVITY RATIO, first concentration (hSGLT2): 1.0; SGLT2/SGLT1 ACTIVITY RATIO, second concentration (hSGLT2): 0.9 |
| CCCCCCCCCCCCN(C)C [Dimethyldodecylamine] |  |  |  |  | SGLT2/SGLT1 ACTIVITY RATIO, first concentration (hSGLT2): 0.9; SGLT2/SGLT1 ACTIVITY RATIO, second concentration (hSGLT2): 1.0 |
| CN(C)CCCN1c2ccccc2CCc2ccccc21 [Imipramine HCl] |  |  |  |  | SGLT2/SGLT1 ACTIVITY RATIO 5 uM Mean (hSGLT2): 0.743 |
| C/C=C(/C)C(=O)O[C@H]1C[C@@](C)(O)C(=O)[C@@H](OC(=O)/C(C)=C\C)[C@@]2(C)CC[C@@](O)(C(C)C)[C@H]12 [Laserpitin] |  |  |  |  | SGLT2/SGLT1 ACTIVITY RATIO, first concentration (hSGLT2): 1.0; SGLT2/SGLT1 ACTIVITY RATIO, second concentration (hSGLT2): 1.0 |
| CN(C)CCOC(C)(c1ccccc1)c1ccccc1 [Moxastine HCl] |  |  |  |  | SGLT2/SGLT1 ACTIVITY RATIO 5 uM Mean (hSGLT2): 0.9 |
| OC(CCN1CCCCC1)(c1ccccc1)C1CC2C=CC1C2 (stereo not drawn) [biperiden, reference compound] |  |  |  |  | SGLT1/2 inhibition stated in words (SGLT1): novel SGLT1/2 inhibitors |
| CNCCCN1c2ccccc2CCc2ccccc21 [desipramine, reference compound] |  |  |  |  | SGLT2/SGLT1‐50μmol/L (ratio of SGLT2 to SGLT1 activities with 50 μmol/L inhibitor) (SGLT1): 0.5; SGLT1 inhibition (SGLT1): no inhibition |
| CN(C)CCCN1c2ccccc2CCc2ccccc21 [imipramine, reference compound] |  |  |  |  | SGLT2/SGLT1‐50μmol/L (ratio of SGLT2 to SGLT1 activities with 50 μmol/L inhibitor) (SGLT1): 0.4; inhibition at 50 µM (SGLT1): 24% |
| Cc1cccc(C)c1NC(=O)C1CCCCN1C (stereo not drawn) [mepivacaine, reference compound] |  |  |  |  | inhibition at 50 µM (SGLT1): 11% |
| NC(=O)C1CCCN1C(=O)C(CCC(=O)O)NC(=O)C1CCC(=O)N1 (stereo not drawn) [pGlu-Glu-Pro-Amide] ([pGlu]-Glu-Pro-NH2; configuration not given here) |  |  |  |  | SGLT2/SGLT1 ACTIVITY RATIO, first concentration (hSGLT2): 1.0; SGLT2/SGLT1 ACTIVITY RATIO, second concentration (hSGLT2): 1.0 |
| CC=C(C)C(=O)O[C@H]1[C@@H](OC(C)=O)c2c(ccc3ccc(=O)oc23)OC1(C)C [praeruptorin C] |  |  |  |  | activity (SGLT1): 90% |
| OC(CCN1CCCC1)(c1ccccc1)C1CCCCC1 (stereo not drawn) [procyclidine, reference compound] |  |  |  |  | SGLT1/2 inhibition stated in words (SGLT1): novel SGLT1/2 inhibitors |

Reference: PMC6664820, “Novel natural and synthetic inhibitors of solute carriers SGLT1 and SGLT2” (Pharmacology Research & Perspectives, 2019)
